From US7119111B2, “2-oxo-1,3,4-trihydroquinazolinyl derivatives and methods of use” (Amgen, Inc., priority 2002, dated 2006) come the findings set out here.

Bounds are passed on as bounds.

Assay in the first series: not given
Conditions: not given
For `O=C1Nc2cc(-c3cccc(O)c3)ccc2CN1c1csc(-c2ccncc2)n1` [Example 31, 7-(3-Hydroxyphenyl)-3-(2-(4-pyridyl) (1,3-thiazol-4-yl))-1,3,4-trihydroquinazolin-2-one], the melting point was 320 to 322 °C. `O=C1Nc2cc(-c3cccc(OCCN4CCCCC4)c3)ccc2CN1c1csc(-c2ccncc2)n1` [Example 32, 7-[3-(2-Piperidylethoxy)phenyl]-3-(2-(4-pyridyl)(1,3-thiazol-4-yl))-1,3,4-trihydroquinazolin-2-one]: the melting point was in the range of 206 to 208 °C. As to `COc1ccc(-c2csc(N3Cc4ccccc4NC3=O)n2)cc1` [Example 48, 3-[4-(4-Methoxyphenyl)-1,3-thiazol-2-yl]-1,3,4-trihydroquinazolin-2-one], the melting point lay within 275 to 278 °C. On to `O=C1Nc2ccccc2CN1c1nc(-c2ccc(O)cc2)cs1` [Example 49, 3-[4-(4-Hydroxyphenyl)-1,3-thiazol-2-yl]-1,3,4-trihydroquinazolin-2-one], for which the melting point was in the range of 288 to 291 °C.

In turn, `O=C1Nc2cc(C(F)(F)F)ccc2CN1c1nc(-c2ccncc2)ns1` [Example 52, 3-(3-(4-Pyridyl)(1,2,4-thiadiazol-5-yl))-7-(trifluoromethyl)-1,3,4-trihydroquinazolin-2-one] gave a melting point greater than 300 °C.

Regarding `O=C1Nc2cccc(N3CCOCC3)c2CN1c1nc(-c2ccncc2)ns1` [Example 53, 5-Morpholin-4-yl-3-(3-(4-pyridyl)(1,2,4-thiadiazol-5-yl))-1,3,4-trihydroquinazolin-2-one], the melting point was greater than 300 °C. `CN1CCC[C@H]1COc1ccc2c(c1)CN(c1nc(-c3ccncc3)ns1)C(=O)N2` [Example 54, 6-[((2S)-1-Methylpyrrolidin-2-yl)methoxy]-3-(3-(4-pyridyl)-(1,2,4-thiadiazol-5-yl))-1,3,4-trihydroquinazolin-2-one] came in with a melting point greater than 275 °C.

Turning to `CN1CCC[C@H]1COc1cccc2c1CN(c1nc(-c3ccncc3)ns1)C(=O)N2` [Example 55, 5-[((2S)-1-Methylpyrrolidin-2-yl)methoxy]-3-(3-(4-pyridyl)-(1,2,4-thiadiazol-5-yl))-1,3,4-trihydroquinazolin-2-one], the melting point was greater than 250 °C. As for `O=C1Nc2cc(F)c(N3CCCCC3)cc2CN1c1csc(-c2ccncc2)n1` [Example 56, 7-Fluoro-6-piperidyl-3-(2-(4-pyridyl)(1,3-thiazol-4-yl))-1,3,4-trihydroquinazolin-2-one], the melting point was 312 to 314 °C. On the same count and under the same terms, under `COc1cccc(-c2cccc3c2CN(c2csc(-c4ccncc4)n2)C(=O)N3)c1` [Example 57, 5-(3-Methoxyphenyl)-3-(2-(4-pyridyl)(1,3-thiazol-4-yl))-1,3,4-trihydroquinazolin-2-one] stands 250 to 252 °C.

Another series can be described thus: Cell Proliferation Assay (BrdU incorporation). Particulars: Homo sapiens; 48 h incubation, BrdU labeling; cell line not specified; read-out: inhibited cell proliferation IC50. It is filed as cell-based. As to the method:
Cell proliferation was measured using a calorimetric immunoassay (B/M Roche #164 7229), based on the measurement of pyrimidine analog BrdU incorporation during DNA synthesis in proliferating cells. Cells, e.g., human PC-3 prostate carconima cells, huFSF normal human foreskin fibroblast cells, HCT 116 human colon carcinoma cells or HT 29 human colon carcinoma cells, were cultured in a 96-well plate for 24 h, until a cell count of 3×10^3 to 6×10^3 cells per well in duplicate wells were achieved, in a well volume of 200 μl. The media was changed and 1 μl of 200× control inhibitors or compounds was added to each well. Cells are incubated for 48 h at 37° C. The cells were labeled with BrdU for 4 h at 37° C. The labeling medium was removed and in one step, the cells were fixed and the DNA was denatured (30 min at RT). Anti-BrdU-POD antibody was added to bind to the BrdU incorporated in newly synthesized cellular DNA (60–90 min at RT). The cells were washed 3×with washing buffer, substrate (100 μl) was added and the cells were incubated for 10 min at RT. The substrate reaction was stopped by adding 25 μl of 1M H2SO4. The amount of BrdU incorporated was quantified by measuring the absorbance at 450 nm using ELISA reader. IC50's were calculated using GraFit (Sigma).
(In general: Incorporation of labelled thymidine or its analogues reports DNA synthesis.)
For the compound `COC(=O)c1cccc2c1CN(c1csc(-c3ccncc3)n1)C(=O)N2` [Example 2, Methyl 2-oxo-3-(2-(4-pyridyl)(1,3-thiazol-4-yl))-1,3,4-trihydroquinazoline-5-carboxylate], the IC50 was less than 5 µM. For `O=C1Nc2cccc(CN3CCCCC3)c2CN1c1csc(-c2ccncc2)n1` [Example 15, 5-(Piperidylmethyl)-3-(2-(4-pyridyl)(1,3-thiazol-4-yl))-1,3,4-trihydroquinazolin-2-one], the IC50 was less than 5 µM. As for `Nc1ccc2c(c1)NC(=O)N(c1csc(-c3ccncc3)n1)C2` [Example 28, 7-Amino-3-(2-(4-pyridyl)(1,3-thiazol-4-yl))-1,3,4-trihydroquinazolin-2-one], the IC50 is less than 5 µM.

Consider `O=C1Nc2cc(-c3cccc(O)c3)ccc2CN1c1csc(-c2ccncc2)n1` [Example 31, 7-(3-Hydroxyphenyl)-3-(2-(4-pyridyl) (1,3-thiazol-4-yl))-1,3,4-trihydroquinazolin-2-one], for which the IC50 is less than 5 µM. For the compound `O=C1Nc2cc(-c3cccc(OCCN4CCCCC4)c3)ccc2CN1c1csc(-c2ccncc2)n1` [Example 32, 7-[3-(2-Piperidylethoxy)phenyl]-3-(2-(4-pyridyl)(1,3-thiazol-4-yl))-1,3,4-trihydroquinazolin-2-one], the IC50 is less than 5 µM. In the case of `O=C1Nc2cccc(-c3ccccc3)c2CN1c1csc(-c2ccncc2)n1` [Example 34, 5-Phenyl-3-(2-(4-pyridyl)(1,3-thiazol-4-yl))-1,3,4-trihydroquinazolin-2-one], the IC50 is less than 5 µM.

Usually melting point stands for the temperature, or range, at which the solid turns liquid.
